# Experimental data published in patent US9492398B2, “Nanocapsulation of essential oils for preventing or curing infectious diseases alone or with an antibiotic” (Eydo Pharma, priority 2011, dated 2016).
# Read-outs that look alike come from different tables or passages of the source.
# Key:
# [1] = from the literature; cited from earlier work
# [2] = test system: SARM S. aureus ATCC25923; assay: In vitro emergence of resistance over passages; format: cell-based, Staphylococcus aureus
# Description: (§1) Mueller Hinton Agar was used in a standardized disk diffusion procedure for determining the susceptibility of rapidly growing aerobic microorganisms to antimicrobial agents.
# (§2) The test to evaluate the increase in resistance was carried out with a concentration of the product of two times the Minimal Inhibitory Concentration (MIC).
# [3] = test system: SARM S. aureus ATCC25923; assay: Minimal inhibitory concentration on Mueller Hinton Agar (Example 13); format: cell-based, Staphylococcus aureus; conditions: Staphylococcus aureus
# Description: as §1, §2
# [4] = test system: S. aureus ATCC25923; assay: as above; format: cell-based, Staphylococcus aureus; conditions: Staphlococcus aureus
# Description: as §1, §2
# [5] = test system: S. aureus 0702E0196; assay: Minimal inhibitory concentration on Muller-Hinton agar; format: cell-based
# Description: (§3) The essential oils were also tested individually for their minimal inhibitory concentration.
# (§4) The solution was first prepared at 40% in DMSO before being placed on the Muller-Hinton agar in the following manner in Table VIII:
# (§5) Twenty-two different microorganisms were tested and their minimal inhibitory concentration was tested.
# [6] = test system: P. aeroginosa ATCC27853; assay: as above; format: cell-based; conditions: read-out: Minimal Inhibitory Concentration
# Description: as §3, §4, §5
# [7] = test system: S. aureus ATC25923; assay: as above; format: cell-based
# Description: as §3, §4, §5
# [8] = test system: A. baumanni SAN008; assay: as above; format: cell-based
# Description: as §3, §4, §5
# [9] = test system: A. baumanni 12; assay: as above; format: cell-based; conditions: read-out: Minimal Inhibitory Concentration
# Description: as §3, §4, §5
# [10] = test system: A. baumanni AYE; assay: as above; format: cell-based
# Description: as §3, §4, §5
# [11] = test system: S. aureus 0703H0036; assay: as above; format: cell-based
# Description: as §3, §4, §5
# [12] = test system: S. aureus 0701A0095; assay: as above; format: cell-based; conditions: Staphylococcus aureus, 0701A0095, read-out: Minimal Inhibitory Concentration
# Description: as §3, §4, §5
# [13] = test system: A. baumanni CIP7034; assay: as above; format: cell-based
# Description: as §3, §4, §5
# [14] = test system: A. baumanni CIP107292; assay: as above; format: cell-based
# Description: as §3, §4, §5
# [15] = test system: E. coli ATCC25922; assay: as above; format: cell-based
# Description: as §3, §4, §5
# [16] = test system: K. oxyloca 0705C0187; assay: as above; format: cell-based
# Description: as §3, §4, §5
# [17] = test system: A. baumanni RCH; assay: as above; format: cell-based; conditions: read-out: Minimal Inhibitory Concentration
# Description: as §3, §4, §5
# [18] = test system: E. coli 0705A0434; assay: as above; format: cell-based
# Description: as §3, §4, §5
# [19] = test system: S. aureus 0706C0025; assay: as above; format: cell-based
# Description: as §3, §4, §5
# [20] = test system: A. baumanni CIP5377; assay: as above; format: cell-based; conditions: read-out: Minimal Inhibitory Concentration
# Description: as §3, §4, §5
# [21] = test system: P. aeroginosa 0704C0134; assay: as above; format: cell-based
# Description: as §3, §4, §5
# [22] = test system: Salmonell enteritidis 4; assay: as above; format: cell-based
# Description: as §3, §4, §5
# [23] = test system: E. cloacae 0705A1743; assay: as above; format: cell-based
# Description: as §3, §4, §5
# [24] = test system: E. aerogenes 0705A0867; assay: as above; format: cell-based
# Description: as §3, §4, §5
smiles,measurement,setting,value
CO[C@@H]1[C@@H](O[C@@H]2O[C@H](C)[C@@H](O[C@H]3C[C@@](C)(O)[C@@H](OC(=O)CC(C)C)[C@H](C)O3)[C@H](N(C)C)[C@H]2O)[C@@H](CC=O)C[C@@H](C)[C@@H](O)/C=C/C=C/C[C@@H](C)OC(=O)C[C@H]1OC(C)=O [Josamycin],LD50 in mice by intraperitoneal injection,[1],780 mg/kg
CCN1CCN(C(=O)N[C@@H](C(=O)N[C@@H]2C(=O)N3[C@@H]2SC(C)(C)[C@@H]3C(=O)O)c2ccccc2)C(=O)C1=O [Piperacillin],LD50 in mice by intraperitoneal injection,[1],9970 mg/kg
CN(C)[C@@H]1C(O)=C(C(N)=O)C(=O)[C@@]2(O)C(O)=C3C(=O)c4c(O)ccc(Cl)c4[C@@H](O)[C@H]3C[C@@H]12 [Demeclocyclin],LD50 in mice by intraperitoneal injection,[1],120 mg/kg
CO[C@H]1/C=C/O[C@@]2(C)Oc3c(C)c(O)c4c(O)c(c(/C=N/N5CCN(C)CC5)c(O)c4c3C2=O)NC(=O)/C(C)=C\C=C\[C@H](C)[C@H](O)[C@@H](C)[C@@H](O)[C@@H](C)[C@H](OC(C)=O)[C@@H]1C [Rifampicin],"appearance of resistance, passage",[2]; Staphylococcus aureus,6
same,concentration at which inhibitory activity reappeared,[2]; after appearance of resistance,0.38 ml/I
same,times the initial minimal inhibitory concentration,[2]; after appearance of resistance,47.5
same,MIC,"[3]; ATCC25923, read-out: Minimal inhibitory concentration",0.008 µg/mL
same,MIC,"[3]; ATCC25923, read-out: Minimal inhibitory concentration/4",0.002 µg/mL
same,2 times the minimal inhibitory concentration,[4],0.16 µg/mL
Cc1ccc(C(C)C)cc1O [carvacrol],Minimal Inhibitory Concentration,[5]; S. aureus 0702E0196,1 mg/mL
same,MIC,"[5]; Staphylococcus aureus, 0702E0196, read-out: Minimal Inhibitory Concentration, S. aureus 0702E0196",1500 µg/mL
same,MIC,[6],7500 µg/mL
same,Minimal Inhibitory Concentration,[7]; S. aureus ATC25923,0.75 mg/mL
same,MIC,"[7]; Staphylococcus aureus, ATC25923, read-out: Minimal Inhibitory Concentration, S. aureus ATC25923",1500 µg/mL
same,Minimal Inhibitory Concentration,[8]; A. baumanni SAN008,1.5 mg/mL
same,MIC,"[8]; read-out: Minimal Inhibitory Concentration, A. baumanni SAN008",1000 µg/mL
same,MIC,[9],1500 µg/mL
same,Minimal Inhibitory Concentration,[10]; A. baumanni AYE,1.5 mg/mL
same,MIC,"[10]; read-out: Minimal Inhibitory Concentration, A. baumanni AYE",1000 µg/mL
same,Minimal Inhibitory Concentration,[11]; S. aureus 0703H0036,2 mg/mL
same,MIC,"[11]; Staphylococcus aureus, 0703H0036, read-out: Minimal Inhibitory Concentration, S. aureus 0703H0036",1500 µg/mL
same,MIC,[12],1500 µg/mL
same,Minimal Inhibitory Concentration,[13]; A. baumanni CIP7034,1.5 mg/mL
same,MIC,"[13]; read-out: Minimal Inhibitory Concentration, A. baumanni CIP7034",1000 µg/mL
same,Minimal Inhibitory Concentration,[14]; A. baumanni CIP107292,1.5 mg/mL
same,MIC,"[14]; read-out: Minimal Inhibitory Concentration, A. baumanni CIP107292",1000 µg/mL
same,Minimal Inhibitory Concentration,[15]; E. coli ATCC25922,2 mg/mL
same,MIC,"[15]; Escherichia coli, ATCC25922, read-out: Minimal Inhibitory Concentration, E. coli ATCC25922",1500 µg/mL
same,Minimal Inhibitory Concentration,[16]; K. oxyloca 0705C0187,2 mg/mL
same,MIC,"[16]; read-out: Minimal Inhibitory Concentration, K. oxyloca 0705C0187",1500 µg/mL
same,MIC,[17],1000 µg/mL
same,Minimal Inhibitory Concentration,[18]; E. coli 0705A0434,2 mg/mL
same,MIC,"[18]; Escherichia coli, 0705A0434, read-out: Minimal Inhibitory Concentration, E. coli 0705A0434",1500 µg/mL
same,Minimal Inhibitory Concentration,[19]; S. aureus 0706C0025,2 mg/mL
same,MIC,"[19]; Staphylococcus aureus, 0706C0025, read-out: Minimal Inhibitory Concentration, S. aureus 0706C0025",1500 µg/mL
same,MIC,[20],1000 µg/mL
same,Minimal Inhibitory Concentration,[21]; P. aeroginosa 0704C0134,5 mg/mL
same,MIC,"[21]; read-out: Minimal Inhibitory Concentration, P. aeroginosa 0704C0134",2500 µg/mL
same,Minimal Inhibitory Concentration,[22]; Salmonell enteritidis 4,2.5 mg/mL
same,MIC,"[22]; read-out: Minimal Inhibitory Concentration, Salmonell enteritidis 4",2000 µg/mL
same,Minimal Inhibitory Concentration,[23]; E. cloacae 0705A1743,2 mg/mL
same,MIC,"[23]; Enterobacter cloacae, 0705A1743, read-out: Minimal Inhibitory Concentration, E. cloacae 0705A1743",1500 µg/mL
same,Minimal Inhibitory Concentration,[24]; E. aerogenes 0705A0867,2 mg/mL
same,MIC,"[24]; Klebsiella aerogenes, 0705A0867, read-out: Minimal Inhibitory Concentration, E. aerogenes 0705A0867",1500 µg/mL
